{"source": "patent US20260284078A1", "about": "“IMMUNOS[…] AND METHODS THEREOF” (priority 2023, published 2026)", "key": {"[1]": {"assay": "Example 5 peripheral drug exposures in blood and plasma", "assay_type": "in vivo, cynomolgus macaques", "details": "oral once per day (Dex 0.5 mg/kg, Tac 1 mg/kg, Pred 3 mg/kg); day 21, 4 hours post-dosing", "source_text": "FIG. 9. Exemplary peripheral drug exposures in blood and plasma. […] The X axis of the graph denotes immunosuppression agent (dexamethasone, tacrolimus, or prednisolone); the Y axis of the graph depicts ng/ml of the immunosuppression agent as detected in blood for dexamethasone and prednisolone or in plasma for tacrolimus. Each circle represents data collected from one animal."}, "cynomolgus macaques [2]": {"system": "cynomolgus macaques", "assay": "Example 5 histopathological lesions in examined animals (Table 1)", "assay_type": "in vivo", "details": "rAAV 5×10^13 vg/kg IV + regimen, day 22 necropsy", "source_text": "FIGS. 10A-10C. […] Columns represent average value for each treatment group. […] Treatment group is denoted at left. […] Magnification is indicated at top. […] Treatment groups of animals are indicated at top."}, "cynomolgus macaques [3]": {"system": "cynomolgus macaques", "assay": "Example 5 liver enzymes and total bilirubin in blood (Table 2)", "details": "rAAV 5×10^13 vg/kg IV plus regimen", "excerpt": "Blood samples were collected from animals on days-7, 4, 8, 15, and 22 (wherein 0=day of rAAV administration) and subsequently analyzed for levels of certain liver enzymes and total bilirubin. […] (D) Level of total bilirubin (TBIL) was quantified. The X axis depicts day of study (wherein 0=day of rAAV administration); the Y axis depicts milligrams (mg) per deciliter (dL) of total bilirubin. Each graphed line corresponds to data collected from one animal. Legend at right identifies treatment group.\nReduction in liver toxicity upon treatment with rAAV by tested immunosuppression regimens was investigated through measurement of levels of liver enzymes and analysis of liver lesions at necropsy."}}}
{"smiles": "C[C@@H]1C[C@H]2[C@@H]3CCC4=CC(=O)C=C[C@]4(C)[C@@]3(F)[C@@H](O)C[C@]2(C)[C@@]1(O)C(=O)CO", "note": "[Dex, dexamethasone]", "values": [{"measurement": "peripheral drug exposure", "setting": "[1]", "value": "achieved targeted ranges of peripheral drug exposure"}]}
{"smiles": "C[C@]12C=CC(=O)C=C1CC[C@@H]1[C@@H]2[C@@H](O)C[C@@]2(C)[C@H]1CC[C@]2(O)C(=O)CO", "note": "[Pred, prednisolone]", "values": [{"measurement": "Dorsal root ganglia, cervical: Infiltrate, mononuclear cell (animals affected, total)", "setting": "cynomolgus macaques [2]; 3 examined per group", "value": "(0)"}, {"measurement": "Dorsal root ganglia, cervical: Infiltrate, mononuclear cell, Minimal (animals)", "setting": "cynomolgus macaques [2]; 3 examined per group", "value": 0}, {"measurement": "Dorsal root ganglia, lumbar: Degeneration/necrosis, neuron (animals affected, total)", "setting": "cynomolgus macaques [2]; 3 examined per group", "value": "(3)"}, {"measurement": "Dorsal root ganglia, lumbar: Degeneration/necrosis, neuron, Minimal (animals)", "setting": "cynomolgus macaques [2]; 3 examined per group", "value": 3}, {"measurement": "Dorsal root ganglia, lumbar: Infiltrate, mononuclear cell (animals affected, total)", "setting": "cynomolgus macaques [2]; 3 examined per group", "value": "(3)"}, {"measurement": "Dorsal root ganglia, lumbar: Infiltrate, mononuclear cell, Minimal (animals)", "setting": "cynomolgus macaques [2]; 3 examined per group", "value": 3}, {"measurement": "Dorsal root ganglia, sacral: Degeneration/necrosis, neuron (animals affected, total)", "setting": "cynomolgus macaques [2]; 3 examined per group", "value": "(1)"}, {"measurement": "Dorsal root ganglia, sacral: Degeneration/necrosis, neuron, Minimal (animals)", "setting": "cynomolgus macaques [2]; 3 examined per group", "value": 1}, {"measurement": "Dorsal root ganglia, sacral: Infiltrate, mononuclear cell (animals affected, total)", "setting": "cynomolgus macaques [2]; 3 examined per group", "value": "(1)"}, {"measurement": "Dorsal root ganglia, sacral: Infiltrate, mononuclear cell, Mild (animals)", "setting": "cynomolgus macaques [2]; 3 examined per group", "value": 1}, {"measurement": "Dorsal root ganglia, sacral: Infiltrate, mononuclear cell, Minimal (animals)", "setting": "cynomolgus macaques [2]; 3 examined per group", "value": 0}, {"measurement": "Dorsal root ganglia, thoracic: Degeneration/necrosis, neuron (animals affected, total)", "setting": "cynomolgus macaques [2]; 3 examined per group", "value": "(1)"}, {"measurement": "Dorsal root ganglia, thoracic: Degeneration/necrosis, neuron, Minimal (animals)", "setting": "cynomolgus macaques [2]; 3 examined per group", "value": 1}, {"measurement": "Dorsal root ganglia, thoracic: Infiltrate, mononuclear cell (animals affected, total)", "setting": "cynomolgus macaques [2]; 3 examined per group", "value": "(2)"}, {"measurement": "Dorsal root ganglia, thoracic: Infiltrate, mononuclear cell, Minimal (animals)", "setting": "cynomolgus macaques [2]; 3 examined per group", "value": 2}, {"measurement": "Heart: Degeneration, myocardium (animals affected, total)", "setting": "cynomolgus macaques [2]; 3 examined per group", "value": "(1)"}, {"measurement": "Heart: Degeneration, myocardium, Minimal (animals)", "setting": "cynomolgus macaques [2]; 3 examined per group", "value": 1}, {"measurement": "Heart: Infiltrate, mononuclear cell, adipose (animals affected, total)", "setting": "cynomolgus macaques [2]; 3 examined per group", "value": "(3)"}, {"measurement": "Heart: Infiltrate, mononuclear cell, adipose, Minimal (animals)", "setting": "cynomolgus macaques [2]; 3 examined per group", "value": 3}, {"measurement": "Heart: Infiltrate, mononuclear cell, myocardium (animals affected, total)", "setting": "cynomolgus macaques [2]; 3 examined per group", "value": "(2)"}, {"measurement": "Heart: Infiltrate, mononuclear cell, myocardium, Mild (animals)", "setting": "cynomolgus macaques [2]; 3 examined per group", "value": 1}, {"measurement": "Heart: Infiltrate, mononuclear cell, myocardium, Minimal (animals)", "setting": "cynomolgus macaques [2]; 3 examined per group", "value": 1}, {"measurement": "Sciatic nerve: Degeneration, nerve fiber (animals affected, total)", "setting": "cynomolgus macaques [2]; 3 examined per group", "value": "(1)"}, {"measurement": "Sciatic nerve: Degeneration, nerve fiber, Minimal (animals)", "setting": "cynomolgus macaques [2]; 3 examined per group", "value": 1}, {"measurement": "Trigeminal ganglion: Degeneration/necrosis, neuron (animals affected, total)", "setting": "cynomolgus macaques [2]; 3 examined per group", "value": "(2)"}, {"measurement": "Trigeminal ganglion: Degeneration/necrosis, neuron, Minimal (animals)", "setting": "cynomolgus macaques [2]; 3 examined per group", "value": 2}, {"measurement": "Trigeminal ganglion: Infiltrate, mononuclear cell (animals affected, total)", "setting": "cynomolgus macaques [2]; 3 examined per group", "value": "(2)"}, {"measurement": "Trigeminal ganglion: Infiltrate, mononuclear cell, Minimal (animals)", "setting": "cynomolgus macaques [2]; 3 examined per group", "value": 2}, {"measurement": "Sympathetic ganglia, thoracic: Infiltrate, mononuclear cell (animals affected, total)", "setting": "cynomolgus macaques [2]; examined: Dex/Tac 1, Pred 3", "value": "(2)"}, {"measurement": "Sympathetic ganglia, thoracic: Infiltrate, mononuclear cell, Minimal (animals)", "setting": "cynomolgus macaques [2]; examined: Dex/Tac 1, Pred 3", "value": 2}, {"measurement": "Sympathetic ganglia, cervical: Infiltrate, mononuclear cell (animals affected, total)", "setting": "cynomolgus macaques [2]; examined: Dex/Tac 3, Pred 2", "value": "(1)"}, {"measurement": "Sympathetic ganglia, cervical: Infiltrate, mononuclear cell, Minimal (animals)", "setting": "cynomolgus macaques [2]; examined: Dex/Tac 3, Pred 2", "value": 1}, {"measurement": "total bilirubin levels", "setting": "cynomolgus macaques [3]", "value": "notable increases"}, {"measurement": "peripheral drug exposure", "setting": "[1]", "value": "achieved targeted ranges of peripheral drug exposure"}]}
{"smiles": "C=CC[C@@H]1/C=C(\\C)C[C@H](C)C[C@H](OC)[C@H]2O[C@@](O)(C(=O)C(=O)N3CCCC[C@H]3C(=O)O[C@H](/C(C)=C/[C@@H]3CC[C@@H](O)[C@H](OC)C3)[C@H](C)[C@@H](O)CC1=O)[C@H](C)C[C@@H]2OC", "note": "[Tac, tacrolimus]", "values": [{"measurement": "peripheral drug exposure", "setting": "[1]", "value": "achieved targeted ranges of peripheral drug exposure"}]}
